Source: publication PMC9816194, “Use of the head-twitch response to investigate the structure–activity relationships of 4-thio-substituted 2,5-dimethoxyphenylalkylamines” (Psychopharmacology, 2022)
Like-named read-outs stand apart in the source and are kept apart here.

Assays:
male C57BL/6 J mice = assay: Head-twitch response (HTR), magnetometer coil recording; assay type: in vivo; settings: for HTR Counts (Mean ± SEM): 30 min; for ED50: Mus musculus, 0.5 h, HTR, IP, 30 min recording, male C57BL/6 J mice; for reduction of HTR potency versus 2C-T-7: replacement of the 4-n-propylthio group of 2C-T-7; for maximum number of head twitches (mean ± SEM): during the 30-min assessment period
Experimental: Male C57BL/6 J mice (Jackson Laboratory, Bar Harbor, ME) were housed in a vivarium at the University of California San Diego (UCSD), which is an AAALAC-approved animal facility that complies with Federal and State requirements for care and treatment of laboratory animals. The mice (6–8 weeks old) were housed in a climate-controlled room with a reversed light-cycle (lights on at 19:00 h, off at 07:00 h) up to 4 animals per cage. Food and water were provided ad libitum, except during behavioral testing which occurred between 10:00 and 18:00 h. All experiments were conducted according to NIH guidelines and were approved by the UCSD animal care committee.
Head movement was recorded using a head-mounted magnet and a magnetometer coil (Halberstadt and Geyer [2013]). Briefly, mice were anesthetized, a small incision was made in the scalp, and a neodymium magnet was attached to the dorsal surface of the cranium using dental cement. Following a 1–2-week recovery period, behavioral experiments were conducted in a well-lit room with at least 7 days between sessions to avoid any carryover effects. Mice were treated with vehicle or test compound and then placed in a glass cylinder surrounded by a magnetometer coil and activity was recorded for 30 min. All test substances were administered IP dissolved in saline using an injection volume of 5 mL/kg. Coil voltage was filtered (5–10 kHz lowpass), digitized (20 kHz sampling rate), and saved to disk using a Powerlab/8SP with LabChart v 7.3.2 (ADInstruments, Colorado Springs, CO). To detect head twitches, events in the recordings were converted into scalograms using a wavelet transform and then the images were classified using a multistage approach combining the deep convolutional neural network (CNN) ResNet-50 with a support vector machine (SVM) algorithm (Halberstadt [2020]). HTR counts were analyzed using a one-way Welch analysis of variance (ANOVA). Post hoc pairwise comparisons were performed using Dunnett’s test. […] Median effective doses (ED50 values) and 95% confidence intervals were calculated using nonlinear regression (Prism ver. 9.0.2, GraphPad Software Inc, San Diego, CA, USA).

human 5-HT2A receptor [1] = molecular target: T1, human 5-HT2A receptor (Homo sapiens, UniProt P28223); design: expressed in transfected cells; host or cells: HEK 293 (transient), membrane preparations; settings: read-out: 5-HT2A Ki; [3H]ketanserin; ref Luethi et al. (2018); cited from earlier work
mice = settings: ref Gonzalez-Maeso et al. 2007; Halberstadt and Geyer 2013; cited from earlier work
humans = settings: cited from earlier work; for Human potency range: dose range active as psychedelic in humans
human 5-HT2A receptor [2] = molecular target: T1, human 5-HT2A receptor; assay: Agonist activity at the 5-HT2A receptor, FLIPR calcium flux in NIH-3T3 cells; assay type: cell-based; design: expressed in transfected cells; settings: for Emax: NIH3T3, calcium flux, relative to 5-HT, read-out: h5-HT2A Emax
Experimental: NIH-3T3 cells stably expressing the human 5-HT2A receptor were incubated in HEPES-Hank’s Balanced Salt Solution (HBSS) buffer (Gibco, Zug, Switzerland; 70,000 cells/100 μL) for 1 h at 37 °C in poly-D-lysine-coated 96-well plates. Thereafter, 100 μL of dye solution (fluorescence imaging plate reader [FLIPR] calcium 5 assay kit dye solution; Molecular Devices, Sunnyvale, CA, USA) was added to each well and the plates were incubated for 1 h at 37 °C. The plates were then placed into a FLIPR and 25 μL of the test drugs diluted in HEPES-HBSS containing 250 mM probenicid was added to each well online. The increase in fluorescence was measured for 51 s, and EC50 values were derived from the concentration–response curves using nonlinear regression.

h5-HT2C receptors = molecular target: T2, h5-HT2C receptors (Homo sapiens, UniProt P28335); assay: 5-HT2C receptor binding, [3H]mesulergine displacement
T2 construct: expressed in transfected cells; host or cells: HEK 293 (transient), membrane preparations
T2 sequence (P28335 33-458): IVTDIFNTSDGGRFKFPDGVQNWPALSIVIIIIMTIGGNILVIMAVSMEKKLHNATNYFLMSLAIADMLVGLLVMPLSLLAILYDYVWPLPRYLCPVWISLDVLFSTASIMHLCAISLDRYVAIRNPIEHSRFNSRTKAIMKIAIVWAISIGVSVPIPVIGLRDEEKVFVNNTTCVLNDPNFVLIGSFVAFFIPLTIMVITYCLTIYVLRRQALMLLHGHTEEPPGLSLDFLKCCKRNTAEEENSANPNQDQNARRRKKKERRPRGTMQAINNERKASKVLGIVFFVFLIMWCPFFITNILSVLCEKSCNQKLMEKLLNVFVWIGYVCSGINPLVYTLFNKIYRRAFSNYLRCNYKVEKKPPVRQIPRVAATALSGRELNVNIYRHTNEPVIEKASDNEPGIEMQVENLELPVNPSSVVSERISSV
Experimental: (§1) 5-HT receptor binding affinities were assessed as previously described in detail (Luethi et al. [2018]). In brief, membrane preparations of transiently transfected HEK 293 cells were incubated with selective radioligands at concentrations equal to the corresponding Kd and then ligand displacement by the test drugs was measured. The difference between the total binding and the nonspecific binding determined in the presence of selective competitors was defined as specific binding. The following radioligands and competitors, respectively, were used: 0.40 nM [^3H]ketanserin and 10 μM spiperone (serotonin 5-HT2A receptor), 1.4 nM [^3H]mesulergine and 10 μM mianserin (serotonin 5-HT2C receptor). The IC50 values of the radioligand binding assays were determined using nonlinear regression curves for every drug in a one-site model. Ki values corresponding to the dissociation constants were calculated with the Cheng-Prusoff equation.

human 5-HT2B receptor = molecular target: T3, human 5-HT2B receptor (Homo sapiens, UniProt P41595); assay: Agonist activity at the 5-HT2B receptor, FLIPR calcium flux in HEK 293 cells; assay type: cell-based; settings: for Emax: HEK293, calcium flux, read-out: h5-HT2B Emax
T3 construct: expressed in transfected cells
Experimental: HEK 293 cells stably expressing the human 5-HT2B receptor were incubated overnight in poly-D-lysine-coated 96-well plates at a density of 50,000 cells per well and 37 °C. Thereafter, the growth medium was removed by snap inversion and 200 μL of no wash dye (FLIPR calcium 6 assay kit; Molecular Devices, Sunnyvale, CA, USA) was added to each well. The plates were incubated for 2 h at 37 °C and then placed into a FLIPR. Fifty microliters of the test drugs diluted in assay buffer was added to each well online and the increase in fluorescence was measured for 51 s. EC50 values were derived from the concentration–response curves using nonlinear regression.

human 5-HT2A receptor [3] = molecular target: T1, human 5-HT2A receptor; assay: 5-HT2A receptor binding, [3H]ketanserin displacement; design: expressed in transfected cells; host or cells: HEK 293 (transient), membrane preparations
Experimental: as §1

[4] = read-out: ED50 µmol/kg (95% CI)
[5] = p.o., ref Shulgin and Shulgin 1991, Trachsel et al. 2013

T1 sequence (P28223 whole entry): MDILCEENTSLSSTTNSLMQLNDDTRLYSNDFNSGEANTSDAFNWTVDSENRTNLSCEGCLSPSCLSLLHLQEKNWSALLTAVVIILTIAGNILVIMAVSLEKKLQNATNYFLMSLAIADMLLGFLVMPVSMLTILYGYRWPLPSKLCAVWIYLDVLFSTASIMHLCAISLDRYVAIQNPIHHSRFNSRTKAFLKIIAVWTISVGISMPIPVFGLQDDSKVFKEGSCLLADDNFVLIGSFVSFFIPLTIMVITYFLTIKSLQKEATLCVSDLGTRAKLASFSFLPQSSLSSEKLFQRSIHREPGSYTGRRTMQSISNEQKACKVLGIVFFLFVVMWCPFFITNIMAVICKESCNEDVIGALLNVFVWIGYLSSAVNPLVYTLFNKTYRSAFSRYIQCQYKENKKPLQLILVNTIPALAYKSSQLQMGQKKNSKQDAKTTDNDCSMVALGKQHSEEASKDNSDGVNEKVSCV
T3 sequence (P41595 whole entry): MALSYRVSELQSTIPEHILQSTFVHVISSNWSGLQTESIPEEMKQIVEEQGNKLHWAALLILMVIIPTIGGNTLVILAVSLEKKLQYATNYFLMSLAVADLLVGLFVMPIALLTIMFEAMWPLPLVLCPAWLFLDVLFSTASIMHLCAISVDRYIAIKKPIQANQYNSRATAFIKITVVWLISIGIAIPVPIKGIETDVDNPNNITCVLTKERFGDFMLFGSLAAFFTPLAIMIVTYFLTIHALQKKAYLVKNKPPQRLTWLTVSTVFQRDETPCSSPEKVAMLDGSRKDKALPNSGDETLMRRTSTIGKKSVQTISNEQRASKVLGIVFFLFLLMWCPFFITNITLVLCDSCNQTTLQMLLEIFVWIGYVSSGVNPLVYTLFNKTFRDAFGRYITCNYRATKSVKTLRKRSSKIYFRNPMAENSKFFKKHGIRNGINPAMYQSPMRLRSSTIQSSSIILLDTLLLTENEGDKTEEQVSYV

Row | Compound | HTR Counts (Mean ± SEM) (male C57BL/6 J mice; 0.3 mg/kg IP) | HTR Counts (Mean ± SEM) (male C57BL/6 J mice; 1 mg/kg IP) | HTR Counts (Mean ± SEM) (male C57BL/6 J mice; 3 mg/kg IP) | HTR Counts (Mean ± SEM) (male C57BL/6 J mice; 10 mg/kg IP) | ED50 (male C57BL/6 J mice; [4]) [µmol/kg] | ED50 (male C57BL/6 J mice; read-out: ED50 mg/kg (95% CI)) [mg/kg] | Ki (human 5-HT2A receptor [1]) [µM] | also measured
1 | C=C(C)CSc1cc(OC)c(CCN)cc1OC.Cl [Compound 2C-T-3, 2,5-dimethoxy-4-methallylthiophenethylamine hydrochloride] | 11.3 ± 3.6 | 26.2 ± 3.4 | 67.6 ± 5.4 | 67.8 ± 7.5 | 6.12 | 1.86 | 0.011 | HTR Counts (Mean ± SEM) (male C57BL/6 J mice; 30 mg/kg IP): 2.2 ± 1.4; reduction of HTR potency versus 2C-T-7 (male C57BL/6 J mice): more than 50%
2 | CCN(CC)C(=O)N[C@H]1C=C2c3cccc4[nH]cc(c34)C[C@H]2N(C)C1 [lisuride, reference compound] |  |  |  |  |  |  |  | induction of HTR (in words) (mice): does not induce the response
3 | COc1cc(CC(C)N)cc(OC)c1OC (stereo not shown) [TMA, 3,4,5-trimethoxyamphetamine, reference compound] |  |  |  |  |  |  |  | Human potency range (humans; ref Shulgin and Shulgin (1991)): 100 to 250 mg
4 | COc1cc(SCCCF)c(OC)cc1CCN.Cl [Compound 2C-T-28, 4-(3-fluoropropylthio)-2,5-dimethoxyphenethylamine hydrochloride] | 7.4 ± 2.0 | 25.4 ± 4.1 | 42.0 ± 6.1 | 27.2 ± 7.4 | 3.49 | 1.08 | 0.017 | Human active dose range (humans; [5]): 8 to 20 mg
5 | COc1cc(SC)c(OC)cc1CC(C)N.Cl (stereo not shown) [ALEPH, 2,5-Dimethoxy-4-methylthioamphetamine hydrochloride] | 19.4 ± 1.2 | 72.0 ± 12.1 | 115.0 ± 20.9 | 74.0 ± 13.5 | 2.88 | 0.8 |  | EC50 (human 5-HT2A receptor [2]): 0.0103 ± 0.0006 µM; Emax (human 5-HT2A receptor [2]): 80 ± 2.3%; Ki (h5-HT2C receptors): 0.355 ± 0.076 µM; HTR Counts (Mean ± SEM) (male C57BL/6 J mice; 0.1 mg/kg IP): 7.8 ± 1.2; EC50 (human 5-HT2B receptor): 0.0192 ± 0.0017 µM; Emax (human 5-HT2B receptor): 51 ± 2.6%; Ki (human 5-HT2A receptor [3]): 0.0778 µM; Human active dose range (humans; ref Shulgin and Nichols 1978, Shulgin and Shulgin 1991): 5 to 15 mg
6 | CCN(CC)C(=O)[C@@H]1C=C2c3cccc4[nH]cc(c34)C[C@H]2N(C)C1 [LSD, lysergic acid diethylamide, reference compound] |  |  |  |  |  |  |  | induction of HTR (in words) (mice): induces the HTR
7 | COc1cc(SC)c(OC)cc1CCN.Cl [Compound 2C-T, 2,5-Dimethoxy-4-methylthiophenethylamine hydrochloride] |  |  | 49.3 ± 3.1 |  | 13.8 | 3.65 | 0.049 | HTR Counts (Mean ± SEM) (male C57BL/6 J mice; 1.5 mg/kg IP): 22.4 ± 5.9; HTR Counts (Mean ± SEM) (male C57BL/6 J mice; 6 mg/kg IP): 61.0 ± 4.7; HTR Counts (Mean ± SEM) (male C57BL/6 J mice; 12 mg/kg IP): 97.2 ± 8.1; HTR Counts (Mean ± SEM) (male C57BL/6 J mice; 24 mg/kg IP): 64.8 ± 6.0; maximum number of head twitches (mean ± SEM) (male C57BL/6 J mice): 97.2 ± 8.1; Human potency range (humans; ref Shulgin and Shulgin (1991)): 60–100 mg ^[5]; Human active dose range (humans; ref Shulgin and Shulgin 1991, Shulgin et al. 1991): 60 to 100 mg
8 | CCCCSc1cc(OC)c(CCN)cc1OC.Cl [Compound 2C-T-19, 4-n-butylthio-2,5-dimethoxyphenethylamine hydrochloride] | 14.2 ± 3.4 | 19.8 ± 1.1 | 26.6 ± 9.4 | 12.0 ± 4.1 | 3.27 | 1 | 0.0069 | maximum number of head twitches (mean ± SEM) (male C57BL/6 J mice): 26.6 ± 9.4
9 | C=CCSc1cc(OC)c(CCN)cc1OC.Cl [Compound 2C-T-16, 4-allylthio-2,5-dimethoxyphenethylamine hydrochloride] |  |  | 101.6 ± 20.4 |  | 5.8 | 1.68 | 0.0092 | HTR Counts (Mean ± SEM) (male C57BL/6 J mice; 1.5 mg/kg IP): 49.6 ± 11.1; HTR Counts (Mean ± SEM) (male C57BL/6 J mice; 6 mg/kg IP): 100.6 ± 9.6; HTR Counts (Mean ± SEM) (male C57BL/6 J mice; 12 mg/kg IP): 51.2 ± 18.3; HTR potency relative to 2C-T-7 (male C57BL/6 J mice; mouse, in vivo): about 50%; reduction of HTR potency versus 2C-T-7 (male C57BL/6 J mice): more than 50%
10 | COc1cc(SCCF)c(OC)cc1CCN.Cl [Compound 2C-T-21, 2,5-dimethoxy-4-(2-fluoroethylthio)phenethylamine hydrochloride] | 8.8 ± 2.1 | 19.8 ± 2.7 | 61.8 ± 5.0 | 72.6 ± 9.4 | 5.58 | 1.65 |  | EC50 (human 5-HT2A receptor [2]): 0.0097 ± 0.0001 µM; Emax (human 5-HT2A receptor [2]): 69 ± 4.8%; Ki (h5-HT2C receptors): 0.0727 ± 0.0106 µM; EC50 (human 5-HT2B receptor): 0.102 ± 0.024 µM; Emax (human 5-HT2B receptor): 32 ± 1.8%; Ki (human 5-HT2A receptor [3]): 0.0277 ± 0.0062 µM; Human potency range (humans; ref Shulgin and Shulgin (1991)): 8–12 mg ^[5]; Human active dose range (humans; [5]): 8 to 20 mg
11 | COc1cc(SCC(F)F)c(OC)cc1CCN.Cl [Compound 2C-T-21.5, 4-(2,2-difluoroethylthio)-2,5-dimethoxyphenethylamine hydrochloride] |  |  | 39.4 ± 7.2 |  | 9.97 | 3.13 | 0.014 | HTR Counts (Mean ± SEM) (male C57BL/6 J mice; 1.5 mg/kg IP): 26.0 ± 5.4; HTR Counts (Mean ± SEM) (male C57BL/6 J mice; 6 mg/kg IP): 85.6 ± 9.8; HTR Counts (Mean ± SEM) (male C57BL/6 J mice; 12 mg/kg IP): 40.4 ± 13.0; Human potency range (humans; ref Trachsel et al. (2013)): 12–30 mg ^[6]; Human active dose range (humans; [5]): 12 to 30 mg
